Measured values taken from ChEMBL document CHEMBL1201862, “PubChem BioAssay data set” (2004).
Calls of active or inactive are those of the source.

Tests used:
[1] = inhibitors of intracellular T. cruzi replication, confirmation, NIH3T3 host cells, beta-gal luminescence (AID 2044); assay type: functional, cell-based;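 also: intracellular parasites grown in NIH/3T3 mouse fibroblasts as host cells; luminescent beta-galactosidase reporter signal from transgenic T. cruzi replicating inside host cells; inhibitors lower the luminescence signal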
[2] = cytotoxicity toward NIH3T3 fibroblasts, dose response, counter-screen, cell-based, ATP luminescence, mouse fibroblasts (AID 2010); assay type: functional;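 also: cells exposed to compound for about 90 hours before reading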
[3] = Luminescence Cell-Based Dose Retest to Confirm Inhibitors of Cancer Stem Cells. [Related pubchem assays (depositor defined):AID2717, AID2721]; assay type: functional; settings: Homo sapiens
[4] = target: T1, Heat shock factor protein 1 (Mus musculus, UniProt P38532); experiment: HSF1 potentiators in luciferase reporter cells, confirmation, cell-based, NIH3T3, luminescence, dose retest (AID 435004); assay type: functional;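 also: stress induced by proteasome inhibitor MG132 added 30 min after compound; luciferase reporter driven by HSF1 response element in NIH3T3 cells; actives raise luminescence as potentiators of the MG132 stress response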
T1 sequence (P38532 whole entry): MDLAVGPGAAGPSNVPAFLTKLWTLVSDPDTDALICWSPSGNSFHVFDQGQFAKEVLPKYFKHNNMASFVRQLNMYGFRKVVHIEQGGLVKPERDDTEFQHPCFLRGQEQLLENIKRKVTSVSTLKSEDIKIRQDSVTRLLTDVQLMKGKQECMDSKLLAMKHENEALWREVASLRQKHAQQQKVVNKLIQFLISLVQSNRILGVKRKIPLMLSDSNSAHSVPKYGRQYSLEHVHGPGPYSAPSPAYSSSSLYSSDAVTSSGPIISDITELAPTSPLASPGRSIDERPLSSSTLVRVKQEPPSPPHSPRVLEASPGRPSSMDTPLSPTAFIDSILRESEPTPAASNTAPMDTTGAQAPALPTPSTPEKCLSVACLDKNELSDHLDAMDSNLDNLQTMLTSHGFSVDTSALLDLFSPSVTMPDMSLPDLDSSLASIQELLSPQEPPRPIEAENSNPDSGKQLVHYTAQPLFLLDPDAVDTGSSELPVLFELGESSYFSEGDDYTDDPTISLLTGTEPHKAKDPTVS

[5] = target: Heat shock protein HSP 90-alpha (Homo sapiens, UniProt P07900); assay type: functional, organism-based
[6] = target: T2, High affinity choline transporter 1 (Homo sapiens, UniProt Q9GZV3); experiment: CHT inhibitors, dose response, cell-based, 5-point CRC, membrane potential dye (AID 504840); assay type: functional
T2 sequence (Q9GZV3 whole entry): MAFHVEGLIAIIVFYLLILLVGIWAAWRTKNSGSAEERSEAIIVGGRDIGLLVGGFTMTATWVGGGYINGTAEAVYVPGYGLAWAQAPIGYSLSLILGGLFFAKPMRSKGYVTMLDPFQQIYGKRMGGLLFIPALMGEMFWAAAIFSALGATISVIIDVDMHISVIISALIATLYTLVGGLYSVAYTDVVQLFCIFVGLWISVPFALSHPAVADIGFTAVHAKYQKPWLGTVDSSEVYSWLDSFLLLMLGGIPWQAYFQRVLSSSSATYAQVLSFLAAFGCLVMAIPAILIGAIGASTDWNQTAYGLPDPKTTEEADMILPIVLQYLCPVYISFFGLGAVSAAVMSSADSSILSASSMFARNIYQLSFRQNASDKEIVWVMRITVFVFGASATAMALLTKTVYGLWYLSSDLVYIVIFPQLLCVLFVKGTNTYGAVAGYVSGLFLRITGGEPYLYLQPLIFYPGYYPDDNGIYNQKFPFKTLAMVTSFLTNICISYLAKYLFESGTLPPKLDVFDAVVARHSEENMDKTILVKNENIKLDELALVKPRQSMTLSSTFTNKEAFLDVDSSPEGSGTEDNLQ

Vero [7] = experiment: Vero cell cytotoxicity, cytotoxicity control for flavivirus capping enzyme inhibitors (AID 588742); assay type: functional; settings: Chlorocebus sabaeus
Vero [8] = experiment: cells; assay type: functional; settings: Chlorocebus sabaeus
Genome polyprotein = Genome polyprotein (dengue virus type 2, UniProt P29990); experiment: Dengue-2 NS5 methyltransferase inhibitors, primary screen, biochemical, confirmation dose response (AID 588689); assay type: functional
[9] = target: T3, Polyadenylate-binding protein 1 (Homo sapiens, UniProt P11940); experiment: PABP1 MLLE–PAM2 interaction inhibitors, dose response, miRNA deadenylation inhibitor project, biochemical, fluorescence polarization, Cy5-PAM2 peptide, secondary (AID 602260); assay type: functional; settings: read-out: IC50_Mean
[10] = target: T3, Polyadenylate-binding protein 1; experiment: PABP1 MLLE–PAM2 binding inhibitor potency, dose response, biochemical, fluorescence polarization, FITC-PAM2 peptide (AID 602259); assay type: functional; settings: read-out: IC50_Mean
Bcl-2-like protein 10 = target: T4, Bcl-2-like protein 10 (Homo sapiens, UniProt Q9HD36); experiment: displacers of TR3 peptide from Bcl-B, primary screen, selectivity assay for Bfl-1 inhibitor project, biochemical, fluorescence polarization, FITC-TR3 peptide (AID 748);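 also: fluorescence polarization from a fluorescein-labelled TR3 peptide binding purified Bcl-B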
T4 sequence (Q9HD36 whole entry): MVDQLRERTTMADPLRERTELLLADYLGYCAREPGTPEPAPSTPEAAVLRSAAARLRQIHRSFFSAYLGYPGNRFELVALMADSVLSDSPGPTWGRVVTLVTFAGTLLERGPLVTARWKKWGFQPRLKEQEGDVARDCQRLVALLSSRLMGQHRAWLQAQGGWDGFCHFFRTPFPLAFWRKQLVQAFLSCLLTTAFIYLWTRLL

Estrogen receptor beta [11] = target: T5, Estrogen receptor beta (Homo sapiens, UniProt Q92731);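 also: recombinant ER-beta bound to coactivator SRC1 peptide in presence of estradiol agonist; inhibitors block coactivator peptide binding and lower the FRET signal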
Estrogen receptor beta [12] = target: T5, Estrogen receptor beta; experiment: ERβ–SRC-3 coactivator interaction inhibitors, confirmation, orthogonal assay, biochemical, ELISA, streptavidin-HRP readout (AID 1060)
Troponin, cardiac muscle = Troponin, cardiac muscle (Homo sapiens, UniProt P19429+P45379+P63316); experiment: Fluorescence-based biochemical high throughput dose response assay for activators of the calcium sensitivity of cardiac Regulated Thin Filaments (RTF). [Related pubchem assays (depositor defined):AID493008, AID493018, AID504382, AID504383]; assay type: protein-complex assay
[13] = target: T6, Mannose-6-phosphate isomerase (Homo sapiens, UniProt P34949); experiment: PMI enzyme inhibitors, confirmation, biochemical, fluorescence intensity (AID 1535)
T6 sequence (P34949 whole entry): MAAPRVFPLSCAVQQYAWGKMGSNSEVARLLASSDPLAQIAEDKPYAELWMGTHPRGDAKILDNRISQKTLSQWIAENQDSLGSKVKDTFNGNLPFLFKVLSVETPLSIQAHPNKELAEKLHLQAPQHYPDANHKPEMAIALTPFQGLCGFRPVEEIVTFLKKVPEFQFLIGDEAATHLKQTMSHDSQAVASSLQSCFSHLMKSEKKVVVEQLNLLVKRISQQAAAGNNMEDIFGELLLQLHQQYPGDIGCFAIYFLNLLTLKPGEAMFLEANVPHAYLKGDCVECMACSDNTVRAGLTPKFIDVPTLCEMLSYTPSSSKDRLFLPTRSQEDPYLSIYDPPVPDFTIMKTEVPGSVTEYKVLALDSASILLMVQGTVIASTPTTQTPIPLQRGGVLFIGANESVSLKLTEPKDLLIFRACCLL

Phosphomannomutase 2 = target: T7, Phosphomannomutase 2 (Homo sapiens, UniProt O15305); experiment: Counter screen SAR assay for PMM2 inhibitors via a fluorescence intensity assay. [Related pubchem assays (depositor defined):AID1545, AID1574]
T7 sequence (O15305 whole entry): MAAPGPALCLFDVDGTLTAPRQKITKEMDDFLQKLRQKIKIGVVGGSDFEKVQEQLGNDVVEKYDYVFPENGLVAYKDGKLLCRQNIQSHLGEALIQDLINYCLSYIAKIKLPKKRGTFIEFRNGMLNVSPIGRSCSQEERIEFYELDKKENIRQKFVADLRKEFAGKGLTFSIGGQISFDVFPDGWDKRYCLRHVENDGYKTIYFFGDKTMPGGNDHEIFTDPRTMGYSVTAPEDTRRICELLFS

HeLa = experiment: HeLa cell cytotoxicity, dose response, cytotoxicity control, 24 h, cherry-picked samples (AID 504726); assay type: functional, cell-based; settings: Homo sapiens;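 also: potency for cytotoxicity as loss of luminescence signal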
Large T antigen = Large T antigen (Simian virus 40, UniProt P03070); assay type: functional, Betapolyomavirus macacae;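 also: Confirmatory-stage PubChem screen for compounds that inhibit SV40 T antigen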
Cytochrome P450 3A4 [14] = target: T8, Cytochrome P450 3A4 (Homo sapiens, UniProt P08684); settings: Potency
Cytochrome P450 2D6 = Cytochrome P450 2D6 (Homo sapiens, UniProt P10635);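 also: CYP2D6 member of a cytochrome P450 panel assay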
Cytochrome P450 1A2 = target: T9, Cytochrome P450 1A2 (Homo sapiens, UniProt P05177);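 also: PubChem cytochrome P450 panel assay, CYP1A2 panel member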
T9 sequence (P05177 whole entry): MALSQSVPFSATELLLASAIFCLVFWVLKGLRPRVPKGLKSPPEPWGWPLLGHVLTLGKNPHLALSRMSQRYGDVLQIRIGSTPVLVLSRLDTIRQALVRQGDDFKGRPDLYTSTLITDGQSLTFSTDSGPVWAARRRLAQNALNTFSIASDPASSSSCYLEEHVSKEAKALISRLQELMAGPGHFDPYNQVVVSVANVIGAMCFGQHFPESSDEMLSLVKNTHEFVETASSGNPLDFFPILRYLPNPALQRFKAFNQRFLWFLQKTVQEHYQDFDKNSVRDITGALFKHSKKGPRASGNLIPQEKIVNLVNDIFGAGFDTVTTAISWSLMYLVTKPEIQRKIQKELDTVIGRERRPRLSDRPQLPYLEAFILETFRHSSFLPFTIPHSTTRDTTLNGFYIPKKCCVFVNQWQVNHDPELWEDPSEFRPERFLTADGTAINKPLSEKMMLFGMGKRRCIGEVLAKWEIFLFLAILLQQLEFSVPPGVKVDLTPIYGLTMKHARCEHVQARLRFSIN

Cytochrome P450 3A4 [15] = target: T8, Cytochrome P450 3A4

T5 sequence (Q92731 whole entry): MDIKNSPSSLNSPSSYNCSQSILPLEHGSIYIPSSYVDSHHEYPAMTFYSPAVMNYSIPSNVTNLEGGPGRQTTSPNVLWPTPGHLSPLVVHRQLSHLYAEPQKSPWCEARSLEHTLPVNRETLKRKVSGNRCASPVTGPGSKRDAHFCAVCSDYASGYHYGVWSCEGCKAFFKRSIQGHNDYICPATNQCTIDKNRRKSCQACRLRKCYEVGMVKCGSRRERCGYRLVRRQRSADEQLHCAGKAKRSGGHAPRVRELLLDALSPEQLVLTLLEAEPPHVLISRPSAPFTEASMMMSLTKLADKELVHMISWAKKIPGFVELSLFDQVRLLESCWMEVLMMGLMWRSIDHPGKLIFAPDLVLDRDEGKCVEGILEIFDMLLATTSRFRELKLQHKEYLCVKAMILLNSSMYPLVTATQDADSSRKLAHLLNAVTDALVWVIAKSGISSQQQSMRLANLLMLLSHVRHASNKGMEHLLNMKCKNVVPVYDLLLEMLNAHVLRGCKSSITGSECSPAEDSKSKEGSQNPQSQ
T3 sequence (P11940 whole entry): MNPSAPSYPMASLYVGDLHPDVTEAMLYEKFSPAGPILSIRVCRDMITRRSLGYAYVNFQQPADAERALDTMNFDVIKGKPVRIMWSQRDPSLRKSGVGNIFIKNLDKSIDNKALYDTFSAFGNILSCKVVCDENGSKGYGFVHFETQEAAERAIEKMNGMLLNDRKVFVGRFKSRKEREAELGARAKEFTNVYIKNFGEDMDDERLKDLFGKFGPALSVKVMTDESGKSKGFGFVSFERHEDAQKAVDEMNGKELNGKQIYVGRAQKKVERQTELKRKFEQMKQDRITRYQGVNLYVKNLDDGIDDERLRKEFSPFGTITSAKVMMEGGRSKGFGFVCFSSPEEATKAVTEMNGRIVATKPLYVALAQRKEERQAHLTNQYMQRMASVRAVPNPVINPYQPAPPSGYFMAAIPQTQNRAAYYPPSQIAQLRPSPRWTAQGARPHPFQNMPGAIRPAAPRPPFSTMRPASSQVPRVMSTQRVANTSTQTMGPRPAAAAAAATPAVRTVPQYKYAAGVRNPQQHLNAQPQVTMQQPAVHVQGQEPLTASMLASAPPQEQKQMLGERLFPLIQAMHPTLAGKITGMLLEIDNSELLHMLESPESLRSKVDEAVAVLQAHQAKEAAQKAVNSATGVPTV
T8 sequence (P08684 whole entry): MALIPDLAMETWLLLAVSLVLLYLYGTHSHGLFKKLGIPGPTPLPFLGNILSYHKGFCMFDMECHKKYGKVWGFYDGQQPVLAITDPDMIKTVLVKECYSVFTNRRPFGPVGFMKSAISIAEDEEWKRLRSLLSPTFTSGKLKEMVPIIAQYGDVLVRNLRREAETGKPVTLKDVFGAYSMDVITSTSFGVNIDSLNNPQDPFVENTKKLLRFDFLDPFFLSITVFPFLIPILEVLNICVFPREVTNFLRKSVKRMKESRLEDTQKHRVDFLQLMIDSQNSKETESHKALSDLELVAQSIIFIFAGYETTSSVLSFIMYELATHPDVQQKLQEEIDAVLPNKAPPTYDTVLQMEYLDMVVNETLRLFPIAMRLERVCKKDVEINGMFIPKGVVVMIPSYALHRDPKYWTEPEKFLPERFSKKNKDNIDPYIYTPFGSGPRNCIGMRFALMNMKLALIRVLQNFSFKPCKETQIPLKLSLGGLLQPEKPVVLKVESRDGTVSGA
Sequence of Large T antigen (P03070 whole entry): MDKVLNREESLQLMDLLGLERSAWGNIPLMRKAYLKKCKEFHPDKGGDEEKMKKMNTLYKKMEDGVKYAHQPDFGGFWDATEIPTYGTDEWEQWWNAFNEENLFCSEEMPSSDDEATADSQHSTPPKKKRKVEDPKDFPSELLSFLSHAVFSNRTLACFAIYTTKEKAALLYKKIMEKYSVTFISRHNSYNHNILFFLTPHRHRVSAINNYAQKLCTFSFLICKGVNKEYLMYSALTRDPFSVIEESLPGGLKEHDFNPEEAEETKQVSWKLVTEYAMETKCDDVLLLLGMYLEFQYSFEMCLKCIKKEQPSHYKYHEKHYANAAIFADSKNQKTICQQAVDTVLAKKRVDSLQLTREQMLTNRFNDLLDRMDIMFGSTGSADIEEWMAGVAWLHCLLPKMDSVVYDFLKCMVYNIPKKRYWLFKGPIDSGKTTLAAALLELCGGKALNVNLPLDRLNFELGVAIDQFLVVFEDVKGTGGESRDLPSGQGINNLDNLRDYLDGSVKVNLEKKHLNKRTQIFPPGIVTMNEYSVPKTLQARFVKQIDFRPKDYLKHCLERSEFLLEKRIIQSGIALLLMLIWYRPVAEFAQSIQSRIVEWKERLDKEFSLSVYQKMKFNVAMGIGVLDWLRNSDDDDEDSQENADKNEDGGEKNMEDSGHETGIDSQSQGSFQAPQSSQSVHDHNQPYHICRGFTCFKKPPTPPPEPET
Sequence of Genome polyprotein (P29990 2492-3391 limits assumed): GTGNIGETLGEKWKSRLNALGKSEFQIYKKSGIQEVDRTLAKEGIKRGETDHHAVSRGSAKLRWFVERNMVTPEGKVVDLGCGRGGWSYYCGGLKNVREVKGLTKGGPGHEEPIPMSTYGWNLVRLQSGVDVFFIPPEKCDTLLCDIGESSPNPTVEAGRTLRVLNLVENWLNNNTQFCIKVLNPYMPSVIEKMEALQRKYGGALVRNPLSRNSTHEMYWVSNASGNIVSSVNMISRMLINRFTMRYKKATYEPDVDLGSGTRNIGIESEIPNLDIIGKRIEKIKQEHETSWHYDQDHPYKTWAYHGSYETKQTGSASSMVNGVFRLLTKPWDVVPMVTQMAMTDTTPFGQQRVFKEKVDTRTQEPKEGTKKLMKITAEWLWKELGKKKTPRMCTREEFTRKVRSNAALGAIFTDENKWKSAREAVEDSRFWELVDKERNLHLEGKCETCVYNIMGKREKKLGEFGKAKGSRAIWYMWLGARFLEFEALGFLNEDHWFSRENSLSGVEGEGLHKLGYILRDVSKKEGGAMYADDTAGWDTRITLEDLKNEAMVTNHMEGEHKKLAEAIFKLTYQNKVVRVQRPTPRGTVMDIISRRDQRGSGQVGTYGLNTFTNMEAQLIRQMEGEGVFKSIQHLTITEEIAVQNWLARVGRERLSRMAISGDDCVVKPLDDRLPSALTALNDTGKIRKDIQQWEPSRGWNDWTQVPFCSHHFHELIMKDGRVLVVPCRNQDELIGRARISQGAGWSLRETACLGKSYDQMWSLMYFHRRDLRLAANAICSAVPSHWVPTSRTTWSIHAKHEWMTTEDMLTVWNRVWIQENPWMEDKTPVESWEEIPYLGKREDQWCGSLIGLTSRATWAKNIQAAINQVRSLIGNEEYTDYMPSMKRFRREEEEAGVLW
Sequence of Cytochrome P450 2D6 (P10635 whole entry): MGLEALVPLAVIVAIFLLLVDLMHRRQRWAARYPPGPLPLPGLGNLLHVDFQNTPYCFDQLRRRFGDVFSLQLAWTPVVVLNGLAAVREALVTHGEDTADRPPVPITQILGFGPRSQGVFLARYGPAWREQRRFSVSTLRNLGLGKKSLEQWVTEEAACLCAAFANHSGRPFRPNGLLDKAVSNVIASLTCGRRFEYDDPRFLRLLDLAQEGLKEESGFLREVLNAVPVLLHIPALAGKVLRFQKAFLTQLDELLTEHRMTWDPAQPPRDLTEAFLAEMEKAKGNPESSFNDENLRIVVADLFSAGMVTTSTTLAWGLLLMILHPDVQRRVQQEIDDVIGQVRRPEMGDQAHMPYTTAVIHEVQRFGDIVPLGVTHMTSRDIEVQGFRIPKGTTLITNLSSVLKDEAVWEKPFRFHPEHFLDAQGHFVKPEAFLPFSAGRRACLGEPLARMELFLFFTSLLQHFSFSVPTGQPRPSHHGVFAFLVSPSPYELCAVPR

Compound: CC(C)(C)c1ccc(C(=O)CC(Sc2ccc(Cl)cc2)C(=O)O)cc1 (stereo unspecified)
- EC50 [1]: 2.02 µM (active)
- EC50 [2]: > 60 µM (not active)
- AC50 [3]: 4.12 µM (active)
- EC50 [4]: 137 µM (active)
- AC50 [5]: 4.71 µM (active)
- IC50 [6]: 12.6 µM (active)
- CC50 (Vero [7]): 35.9 µM (active)
- CC50 (Vero [8]): 23.2 µM (active)
- IC50 (Genome polyprotein): 38.1 µM (active)
- IC50 [9]: > 66 µM (inactive)
- IC50 [10]: > 66 µM (inactive)

Compound: CCOc1ccc(C(=O)OCC(=O)NCc2ccco2)cc1OCC
- IC50 (Bcl-2-like protein 10): > 100 µM (inactive)
- IC50 (Estrogen receptor beta [11]): > 50 µM (not active)
- IC50 (Estrogen receptor beta [12]): 0.113 µM (not active)

Compound: COc1ccc(NC(=O)c2cnn3c(C(F)(F)F)cc(-c4ccco4)nc23)cc1OC
- IC50 (Bcl-2-like protein 10): 66.8 µM (inactive)

Compound: CCCCN(CCCC)CCNC(=O)c1cn(CC)c2ccc(S(=O)(=O)N(C)C3CCCCC3)cc2c1=O
- IC50 [6]: 15.8 µM (active)

Compound: COc1ccccc1NC(=O)COC(=O)c1cnc(C)cn1
- EC50 (Troponin, cardiac muscle): > 71.5 µM (inactive)

Compound: O=C(NCc1nnc(SCC(=O)N2CCCCCC2)o1)c1ccco1
- EC50 (Troponin, cardiac muscle): > 71.5 µM (inactive)

Compound: CCN(Cc1ccccc1)S(=O)(=O)c1cc(C(=O)NC2CCCCCC2)ccc1OC
- IC50 [6]: 0.575 µM (active)

Compound: CNS(=O)(=O)c1ccc(N/C=C2/C(=O)NC(=O)N(c3ccccc3)C2=O)cc1
- EC50 (Troponin, cardiac muscle): > 71.5 µM (inactive)

Compound: Cc1c(C(=O)NCCSCc2cccc(C(F)(F)F)c2)cnn1-c1ccc(Cl)cc1
- AC50 [5]: 7.25 µM (active)

Compound: COCCN1CCn2c(nc3cc(NC(=O)NC4CCCCC4)ccc32)C1
- IC50 (Bcl-2-like protein 10): > 12.5 µM (inactive)

Compound: Cc1cc2n(n1)SC(Nc1ccc(F)cc1)N2 (stereo unspecified)
- IC50 [13]: > 50 µM (inactive)
- IC50 (Phosphomannomutase 2): > 100 µM (inactive)

Compound: CCN(Cc1ccccc1)S(=O)(=O)c1cc2nc(O)c(O)nc2cc1C
- AC50 (HeLa): > 350 µM (inactive)

Compound: CC(=O)NC(=NOCc1ccc(Br)cc1)c1nonc1NC(C)=O
- AC50 (HeLa): > 350 µM (inactive)

Compound: CS(=O)(=O)c1ccc2nc(-n3sc4ccccc4c3=O)sc2c1
- IC50 [13]: > 50 µM (inactive)
- IC50 (Phosphomannomutase 2): > 100 µM (inactive)

Compound: Cc1cnc(/N=c2\ssnc2Cl)cn1
- IC50 [13]: > 100 µM (inactive)

Compound: CC(C)[C@H](NC(=O)c1ccccc1F)C(=O)NC1CCCCCCC1
- AC50 (HeLa): 135 µM (active)

Compound: CC(C)N(C(S)=Nc1cccnc1)c1ccccc1
- AC50 (HeLa): > 350 µM (inactive)

Compound: CC(=O)NCCc1c[nH]c2ccc(O)cc12 [ACETYLSEROTONIN]
- IC50 (Large T antigen): 21.7 µM (active)
- AC50 (Cytochrome P450 3A4 [14]): 25.1 µM (inconclusive)
- AC50 (Cytochrome P450 2D6): 15.8 µM (inconclusive)
- AC50 (Cytochrome P450 1A2): 15.8 µM (inconclusive)
- AC50 (Cytochrome P450 3A4 [15]): 7.94 µM (inconclusive)
